# Where a chain is given by its changes, count along the chain named. Where “and” joins values, the source holds several entries; their conditions need not be identical. Equal values may be shown once.
# Tests used:
# GPR126 [1] = molecular target: T1, GPR126 (Homo sapiens, UniProt Q86SQ4); assay: cell-based; type: cell-based
# T1 sequence (Q86SQ4 38-1221): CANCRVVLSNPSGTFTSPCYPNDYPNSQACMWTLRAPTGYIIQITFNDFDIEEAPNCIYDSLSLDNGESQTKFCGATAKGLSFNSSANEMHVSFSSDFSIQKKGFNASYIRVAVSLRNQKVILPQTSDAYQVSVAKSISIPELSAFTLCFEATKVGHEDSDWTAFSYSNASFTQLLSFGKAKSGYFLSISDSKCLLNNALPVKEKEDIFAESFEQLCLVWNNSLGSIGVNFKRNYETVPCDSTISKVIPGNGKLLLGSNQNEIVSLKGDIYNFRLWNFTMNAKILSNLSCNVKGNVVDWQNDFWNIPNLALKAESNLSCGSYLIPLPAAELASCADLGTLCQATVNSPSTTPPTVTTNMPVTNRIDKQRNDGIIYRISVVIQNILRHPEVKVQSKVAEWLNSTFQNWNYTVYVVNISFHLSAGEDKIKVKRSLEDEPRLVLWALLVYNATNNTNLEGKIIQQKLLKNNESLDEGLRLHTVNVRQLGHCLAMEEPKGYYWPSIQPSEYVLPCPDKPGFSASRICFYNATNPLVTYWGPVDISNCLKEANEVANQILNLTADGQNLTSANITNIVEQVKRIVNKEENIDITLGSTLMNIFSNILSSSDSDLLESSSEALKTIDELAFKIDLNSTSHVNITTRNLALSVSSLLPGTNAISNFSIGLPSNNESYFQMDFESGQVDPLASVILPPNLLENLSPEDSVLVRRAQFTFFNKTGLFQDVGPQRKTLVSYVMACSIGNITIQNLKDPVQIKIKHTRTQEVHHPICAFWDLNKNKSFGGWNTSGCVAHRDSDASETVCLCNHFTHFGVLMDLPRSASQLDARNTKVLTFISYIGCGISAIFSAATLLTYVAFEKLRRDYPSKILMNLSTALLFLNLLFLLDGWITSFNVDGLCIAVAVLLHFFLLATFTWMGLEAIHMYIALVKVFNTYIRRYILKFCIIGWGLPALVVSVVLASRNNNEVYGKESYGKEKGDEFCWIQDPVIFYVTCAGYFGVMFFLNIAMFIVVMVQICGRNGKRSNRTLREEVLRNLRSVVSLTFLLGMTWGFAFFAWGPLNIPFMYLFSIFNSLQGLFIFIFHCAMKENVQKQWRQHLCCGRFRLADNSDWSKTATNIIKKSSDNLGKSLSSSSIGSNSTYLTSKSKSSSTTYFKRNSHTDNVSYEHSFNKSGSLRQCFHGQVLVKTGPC
# GPR126 [2] = molecular target: T1, GPR126; type: cell-based
# MDA-MB-231 cells [3] = type: cell-based, human
# full-length GPR126 [4] = molecular target: T2, full-length GPR126 (Homo sapiens, UniProt Q86SQ4); assay: cell-based; type: cell-based
# T2 sequence (Q86SQ4 38-1221): T1 sequence (Q86SQ4 38-1221)
# full-length GPR126 [5] = molecular target: T3, full-length GPR126 (Homo sapiens, UniProt Q86SQ4, R1057Q); assay: cell-based; type: cell-based
# T3 sequence (Q86SQ4 38-1221 R1057Q): T1 sequence (Q86SQ4 38-1221) with R1020Q
# full-length GPR126 [6] = assay: cell-based; type: cell-based, human
# GPR126-β = molecular target: T4, GPR126-β (Homo sapiens, UniProt Q86SQ4); assay: GloSensor cAMP inhibition assay, GPR126-β construct; type: cell-based
# T4 sequence (Q86SQ4 841-1221 limits assumed): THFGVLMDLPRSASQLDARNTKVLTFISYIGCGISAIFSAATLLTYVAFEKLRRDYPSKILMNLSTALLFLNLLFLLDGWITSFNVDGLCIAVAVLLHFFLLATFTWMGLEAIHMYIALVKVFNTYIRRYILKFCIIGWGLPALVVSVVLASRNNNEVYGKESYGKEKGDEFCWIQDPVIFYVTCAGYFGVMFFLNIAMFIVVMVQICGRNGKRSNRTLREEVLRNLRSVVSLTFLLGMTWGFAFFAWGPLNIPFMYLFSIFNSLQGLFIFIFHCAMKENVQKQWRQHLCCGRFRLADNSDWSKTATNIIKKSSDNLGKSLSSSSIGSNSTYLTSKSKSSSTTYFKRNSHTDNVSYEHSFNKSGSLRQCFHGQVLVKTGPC
# PAQR7 = molecular target: T5, PAQR7 (Homo sapiens, UniProt Q86WK9); assay: GloSensor cAMP inhibition assay in HEK293 cells overexpressing PAQR7; type: cell-based; details: similar plasma membrane expression levels
# T5 sequence (Q86WK9 1-346): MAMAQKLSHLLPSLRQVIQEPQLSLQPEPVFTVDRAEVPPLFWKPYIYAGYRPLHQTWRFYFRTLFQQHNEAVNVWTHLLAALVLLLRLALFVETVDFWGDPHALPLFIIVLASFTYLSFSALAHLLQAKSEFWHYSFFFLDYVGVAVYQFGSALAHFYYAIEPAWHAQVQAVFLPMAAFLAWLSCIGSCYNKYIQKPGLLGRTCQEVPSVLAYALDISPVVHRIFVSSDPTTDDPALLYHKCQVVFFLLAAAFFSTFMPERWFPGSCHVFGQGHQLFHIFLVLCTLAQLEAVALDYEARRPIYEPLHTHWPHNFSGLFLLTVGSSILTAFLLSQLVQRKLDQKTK
# PAQR8 = molecular target: T6, PAQR8 (Homo sapiens, UniProt Q8TEZ7); assay: GloSensor cAMP inhibition assay in HEK293 cells overexpressing PAQR8; type: cell-based; details: similar plasma membrane expression levels
# T6 sequence (Q8TEZ7 1-354): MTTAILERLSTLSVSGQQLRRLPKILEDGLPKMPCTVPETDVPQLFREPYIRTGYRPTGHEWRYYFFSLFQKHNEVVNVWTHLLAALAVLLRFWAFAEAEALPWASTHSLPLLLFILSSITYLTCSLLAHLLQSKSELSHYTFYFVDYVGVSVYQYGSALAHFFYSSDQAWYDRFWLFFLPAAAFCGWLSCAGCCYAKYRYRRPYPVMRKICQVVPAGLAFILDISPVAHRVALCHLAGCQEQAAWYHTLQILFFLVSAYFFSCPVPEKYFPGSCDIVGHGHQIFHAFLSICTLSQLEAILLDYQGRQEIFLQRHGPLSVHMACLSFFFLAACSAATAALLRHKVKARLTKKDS
# GPR126 [7] = type: cell-based, human
# MDA-MB-231 cells [8] = assay: Colony formation assay; type: cell-based, human
# MDA-MB-231 cells [9] = assay: Nude mouse xenograft model; type: in vivo, nude mice; details: 15 mg/kg i.p. every 3 d
# [10] = Plasma progesterone level after intraperitoneal injection; type: in vivo, nude mice
# SRC = assay: Western blot of p-SRC Y416, p-AKT S473, p-ERK T202/Y204; type: cell-based, human; details: 10 nM
# GPR126 [11] = molecular target: T1, GPR126; details: angiotensin II and AT1R as controls
# GPR126 [12] = molecular target: T1, GPR126; details: angiotensin II and AT1R as controls; remark: listed apart in the source
smiles,measurement,setting,value
C[C@]12CCC(=O)C=C1CC[C@@H]1[C@@H]2CC[C@@]2(C)[C@H]1CC[C@]2(O)C(=O)CO [11-deoxycortisol],EC50,GPR126 [1],1400 ± 140 nM
same,"Emax compared with 126-SMP, cAMP accumulation",GPR126 [1],less than one-sixth
same,effect on intracellular cAMP accumulation,GPR126 [1],weak but detectable increase
"C=C[C@@]1(C)CC(=O)[C@]2(O)[C@@]3(C)[C@@H](O)CCC(C)(C)[C@@H]3[C@H](O)[C@H](OC(C)=O)[C@@]2(C)O1 [Fsk, Forskolin]",cAMP up-regulation compared to control vehicle,GPR126 [2],approximately three times
COc1cc2ncnc(Nc3ccc(Oc4ccccc4)cc3)c2cc1OC [Src-I1],effect of SRC inhibitor on progesterone-induced cell growth,MDA-MB-231 cells [3],significantly suppressed
CC(=O)[C@H]1CC[C@H]2[C@@H]3CCC4=CC(=O)CC[C@]4(C)[C@H]3CC[C@]12C [progesterone],Gs coupling of GPR126,GPR126 [1],not detectable
same,able to inhibit Fsk-induced cAMP accumulation,full-length GPR126 [4],able to inhibit
same,EC50,"full-length GPR126 [4]; EC50, cAMP inhibition, full-length GPR126",540 nM and ~540 nM
same,potency in cAMP inhibition assay with GPR126 R1057Q mutant,full-length GPR126 [5],decreased the potency
same,GPR126 activity in cAMP inhibition assay with Ala mutants,full-length GPR126 [6],significantly impaired
same,EC50 for GPR126-β lower than that of full-length GPR126,GPR126-β,~10 fold
same,cAMP levels in GPR126 knocking down cells,GPR126 [2],no significant effects
same,cAMP levels induced by Fsk in GPR126-expressing cells,GPR126 [2],inhibited
same,activation of PAQR7 stronger than GPR126 (potency),PAQR7,~100 fold
same,efficacy at PAQR7 compared with GPR126,PAQR7,significant lower efficacy
same,activation of PAQR8 stronger than GPR126 (potency),PAQR8,~100 fold
same,efficacy at PAQR8 compared with GPR126,PAQR8,significant lower efficacy
same,BRET signal between Nluc-N terminus and FlAsH-labeled S1 site of ECL1,GPR126 [7],increase
same,GPR126 response with mutation of F1085,GPR126 [7],impaired
same,extracellular conformational change of GPR126 with K1001 or F1012 mutated to Ala,GPR126 [7],no significant effects
same,BRET signal between Nluc-tagged N terminus and FlAsH-labeled ECL2,GPR126 [7]; concentration-dependent,significant increase
same,growth of GPR126-silenced cells overexpressing wild-type GPR126 or L937A,MDA-MB-231 cells [3],significantly promoted
same,growth promotion in GPR126-silenced cells overexpressing W1081A or F1085A,MDA-MB-231 cells [3],significantly attenuated
same,increase in growth rate of Sh-CTRL cells,MDA-MB-231 cells [3],approximately twofold
same,induced cell growth in GPR126-silenced cells overexpressing R1057Q,MDA-MB-231 cells [3],inhibited
same,proliferation-promoting effect in GPR126-silenced cells,MDA-MB-231 cells [3],attenuated
same,colony number and size in Sh-CTRL cells,"MDA-MB-231 cells [8]; MDA-MB-231 Sh-CTRL, 10 nM",increase
same,increase in colony number and size after GPR126 knockdown,"MDA-MB-231 cells [8]; MDA-MB-231 Sh-GPR126, 10 nM",largely abolished
same,rates of mouse weight gain between groups,MDA-MB-231 cells [9],not significantly different
same,tumor growth in the Sh-CTRL group,MDA-MB-231 cells [9]; 32 d,significantly enhanced
same,tumor growth in the Sh-GPR126-1 group,MDA-MB-231 cells [9]; 32 d,minimal effects
same,size and weight of tumors in the Sh-CTRL group,MDA-MB-231 cells [9]; after 32 d,significantly increased
same,size and weight of tumors in the Sh-GPR126-1 group,MDA-MB-231 cells [9]; after 32 d,no significant effects
same,maximum plasma concentration,"[10]; mice, 15 mg/kg intraperitoneal injection",151 nM
same,steady plasma level,"[10]; mice, 15 mg/kg intraperitoneal injection, from 8 h",4.547 nM
same,Tmax,"[10]; nude, mouse, plasma, ip, 15 mg/kg",~1 h
same,"p-SRC Y416 level, F1085A or W1081A overexpressed in GPR126-silenced cells",SRC; 5 min,failed to increase
same,"pY416 SRC phosphorylation, GPR126 wild-type or L937A overexpressed in GPR126-silenced cells",SRC; 5 min,able to promote
same,time of maximum phosphorylation after treatment,SRC; MDA-MB-231 cells,5 min
same,"phosphorylation of SRC at Y416, p-AKT S473 and p-ERK T202/Y204","SRC; MDA-MB-231 cells, time-dependent",promoted
same,Gq activity of GPR126,GPR126 [11],no obvious
same,β-arrestin-2 recruitment of GPR126,GPR126 [12],no obvious
C[C@]12CC[C@H]3[C@@H](CCC4=CC(=O)CC[C@@]43C)[C@@H]1CC[C@@H]2O [testosterone],EC50,GPR126 [1],800 ± 60 nM
same,"Emax compared with 126-SMP, cAMP accumulation",GPR126 [1],less than one-sixth
same,effect on intracellular cAMP accumulation,GPR126 [1],weak but detectable increase

# Source: publication PMC9169622 (Proceedings of the National Academy of Sciences of the …, 2022)
